Test results from patent US20090281111A1 (Fabre-Kramer Pharmaceuticals, Inc., priority 2008, published 2009).

Tests used:
[1] = 3-OH gepirone concentrations in plasma after administration of gepirone; type: in vivo; conditions: human subjects administered a dose of gepirone, FIG. 2
Protocol: “Time (H)” represents time after administration.
Each sample corresponds to a 0.5 ml plasma sample, extracted with 6 ml of (2:1) (v/v) hexane:chloroform for 1 hour. After separation by centrifuge, the organic layer is transferred to a 10 ml conical tube and 90 ul of 1% formic acid is added. The tube is vortexed for 10 minutes and centrifuged for 5 minutes. About 80 ul of the formic acid layer is transferred into injection vials for HPLC/MS analysis.

[2] = molecular target: T1, 5-HT1A receptor (Homo sapiens, UniProt P08908); conditions: cited from earlier work
T1 sequence (P08908 1-422): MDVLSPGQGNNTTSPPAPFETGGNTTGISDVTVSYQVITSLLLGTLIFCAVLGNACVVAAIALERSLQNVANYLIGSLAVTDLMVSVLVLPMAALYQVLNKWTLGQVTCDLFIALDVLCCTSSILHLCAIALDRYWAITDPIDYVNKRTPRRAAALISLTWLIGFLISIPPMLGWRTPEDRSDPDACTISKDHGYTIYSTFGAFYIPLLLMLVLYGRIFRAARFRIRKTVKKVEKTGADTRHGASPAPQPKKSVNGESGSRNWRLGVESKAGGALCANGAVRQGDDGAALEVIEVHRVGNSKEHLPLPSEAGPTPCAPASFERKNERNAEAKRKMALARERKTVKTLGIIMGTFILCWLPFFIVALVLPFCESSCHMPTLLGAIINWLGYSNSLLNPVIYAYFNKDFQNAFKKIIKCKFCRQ

[3] = test system: dopaminergic receptors; conditions: cited from earlier work
[4] = test system: alpha-adrenergic receptors; conditions: Alpha 2A, Alpha 2B, Alpha 2C tested; cited from earlier work
[5] = molecular target: T2, Alpha 2C receptor (Homo sapiens, UniProt P18825); conditions: cited from earlier work
T2 sequence (P18825 1-462): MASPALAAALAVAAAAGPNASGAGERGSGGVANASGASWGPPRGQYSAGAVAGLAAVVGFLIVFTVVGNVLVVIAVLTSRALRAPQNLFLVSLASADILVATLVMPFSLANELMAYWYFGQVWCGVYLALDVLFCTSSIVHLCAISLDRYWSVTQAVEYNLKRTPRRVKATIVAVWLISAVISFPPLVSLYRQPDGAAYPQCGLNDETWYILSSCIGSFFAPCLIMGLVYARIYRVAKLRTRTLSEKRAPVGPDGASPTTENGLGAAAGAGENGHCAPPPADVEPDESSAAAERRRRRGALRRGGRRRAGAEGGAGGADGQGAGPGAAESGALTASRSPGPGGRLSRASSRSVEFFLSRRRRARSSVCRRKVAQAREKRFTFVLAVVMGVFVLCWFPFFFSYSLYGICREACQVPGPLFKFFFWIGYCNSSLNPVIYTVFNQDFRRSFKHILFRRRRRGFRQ

[6] = cited from earlier work; for half-life: in vivo
[7] = molecular target: 5-HT7 receptor (Homo sapiens, UniProt P34969); conditions: compared with 3-OH gepirone; cited from earlier work
Sequence of 5-HT7 receptor (P34969 whole entry): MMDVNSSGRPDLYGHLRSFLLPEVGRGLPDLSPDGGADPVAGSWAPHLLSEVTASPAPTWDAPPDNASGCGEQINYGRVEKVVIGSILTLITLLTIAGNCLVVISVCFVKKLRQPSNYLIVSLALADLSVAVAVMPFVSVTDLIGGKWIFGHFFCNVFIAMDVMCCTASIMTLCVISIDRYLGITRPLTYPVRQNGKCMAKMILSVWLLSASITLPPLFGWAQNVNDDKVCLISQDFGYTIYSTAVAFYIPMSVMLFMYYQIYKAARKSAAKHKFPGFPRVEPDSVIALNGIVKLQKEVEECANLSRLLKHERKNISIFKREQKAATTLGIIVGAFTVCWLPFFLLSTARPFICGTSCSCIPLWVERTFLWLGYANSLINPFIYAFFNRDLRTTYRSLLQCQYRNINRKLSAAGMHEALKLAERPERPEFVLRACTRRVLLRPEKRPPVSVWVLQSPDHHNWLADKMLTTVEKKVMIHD

[8] = molecular target: 5-HT2A receptor (Homo sapiens, UniProt P28223); conditions: compared with 3-OH gepirone; cited from earlier work
Sequence of 5-HT2A receptor (P28223 whole entry): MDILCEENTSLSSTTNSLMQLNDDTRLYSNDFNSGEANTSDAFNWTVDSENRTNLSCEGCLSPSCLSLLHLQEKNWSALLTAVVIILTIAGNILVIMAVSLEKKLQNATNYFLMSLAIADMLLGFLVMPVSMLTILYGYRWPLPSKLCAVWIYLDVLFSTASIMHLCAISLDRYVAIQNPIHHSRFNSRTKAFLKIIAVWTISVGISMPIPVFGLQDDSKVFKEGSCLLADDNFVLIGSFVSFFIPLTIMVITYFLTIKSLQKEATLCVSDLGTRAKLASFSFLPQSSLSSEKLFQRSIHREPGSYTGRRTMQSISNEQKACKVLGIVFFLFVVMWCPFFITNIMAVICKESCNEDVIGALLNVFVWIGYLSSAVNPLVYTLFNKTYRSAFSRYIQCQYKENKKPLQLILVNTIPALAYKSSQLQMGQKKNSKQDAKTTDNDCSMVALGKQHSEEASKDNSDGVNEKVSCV

Structure (SMILES) | plasma levels of 3-OH gepirone over time [1] | selectivity among the serotonergic receptor subtypes [2] | dopaminergic binding [3] | affinity at alpha-adrenergic receptors [4] | binding at the Alpha 2C receptor [5] | half-life [6] | interaction with the 5-HT7 receptor [7] | bioavailability ([6]; delivered orally) | interaction with the 5-HT2A receptor [8]
CC1(C)CC(=O)N(CCCCN2CCN(c3ncccn3)CC2)C(=O)C1O (centres unmarked) [3-OH gepirone, 4,4,-dimethyl-3-hydroxy-1-[4-[4-(2-pyrimidinyl)-1-piperazinyl]butyl]-2,6-piperidinedione] | available quickly and persists in the plasma for extended periods of time | highly selective for the 5-HT1A receptor | insignificant dopaminergic binding | did not display significant affinity | weak binding | – | – | – | –
O=C1CC2(CCCC2)CC(=O)N1CCCCN1CCN(c2ncccn2)CC1 [buspirone] | – | – | – | – | – | very short | much more specifically and at lower concentrations than does 3-OH gepirone | – | –
CC1(C)CC(=O)N(CCCCN2CCN(c3ncccn3)CC2)C(=O)C1 [gepirone, 4-dimethyl-1-[4-[4-(2-pyrimidinyl)-1-piperazinyl]butyl]-2,6-piperidinedione] | – | – | – | – | – | very short | much more specifically and at lower concentrations than does 3-OH gepirone | 14-18% | much more specifically and at lower concentrations than does 3-OH gepirone
